# Experimental data taken from patent publication US10835493B2, “Platelet-like proteo-microparticles and method of using such in drug delivery” (Academia Sinica, priority 2015, dated 2020).
# How the values were obtained:
# HO-1 expression in SVECs = assay: CoPP-induced HO-1 expression in SVECs (western blotting); assay type: cell-based, murine; settings: 4 hours exposure then overnight, compared to β-actin
# Method: (§1) FIGS. 10A-10C show in vitro analysis of CoPP-induced expression of HO-1. FIG. 10A is a schematic diagram showing the relationship between CoPP, HO-1 and bilirubin. […] The cells were then placed back in a 37° C. incubator overnight before subjecting to western blotting (FIG. 10B). FIG. 10C presents the specific activity of the induced HO-1 in every treated sample, in catalyzing heme into bilirubin (n=6). NT; not treated, CoPP; free CoPP, Lipo+CoPP; liposome-encapsulated CoPP, PLP+CoPP; PLP-encapsulated CoPP. *, P<0.05, ***, P<0.001.
# (§2) Samples were separated on 4-12% SDS-polyacrylamide gels (BioRad, US). After transfer to PVDF membrane, primary and secondary antibodies were applied, and the signals were detected with ECL-plus reagent. Primary antibodies against human GPIIb (GTX113758), human CD42c (GTX113355) and β-actin (GTX109639) were purchased from GeneTex (US). The anti-human CD62P (sc-19672) were from Santa Cruz (US). The rabbit polyclonal anti-HO-1 antibodies were made in-house according to Lin et al. ((2013), Arterioscler Thromb Vase Biol 33:785-794).
# (§3) The capability of PLP−CoPP to induce HO-1 expression was first investigated in SVECs, RAW264.7 cells and MΦ (FIG. 10B). […] In addition, the enzyme activity of HO-1 in each corresponded to the expression level of enzyme in each of the CoPP-treated samples.
# [1] = tested on: HO-1 expression in RAW264.7 cells; assay: CoPP-induced HO-1 expression in RAW264.7 cells (western blotting); assay type: cell-based, murine; settings: 4 hours exposure then overnight
# Method: as §1, §2, §3
# [2] = tested on: murine model of I/R injury; assay: Infarct area in murine model of myocardial I/R injury (histology); assay type: in vivo, mouse; settings: 5 mg/Kg i.v. at 72 hours of reperfusion then every 5 days; vs I/R+saline
# From the text: (§4) FIGS. 6A-6D show therapeutic analysis of PLP−CoPP in a murine model of myocardial I/R injury. […] Subsequent injections were made every 5 days until day 28, at which point the mice were sacrificed. Subsequently, the heart tissues of the mice were sectioned and stained with Masson's trichrome (FIG. 6B). NT; not treated, CoPP; free CoPP, Lipo+CoPP; liposome-encapsulated CoPP, PLP+CoPP; PLP-encapsulated CoPP. Scale bar; 1 mm for the whole section and 100 μm for the higher magnified images.
# Surgery for myocardial ischemia-reperfusion (I/R) was performed according to the protocol published in Ojha et al. ((2008), Am J Physiol Heart Circ Physiol 294:H2435-H2443). Briefly, the mice were ventilated on room air-isoflurane at an appropriate rate and tidal volume. The heart was accessed via left thoracotomy, in which the left lung was retracted to allow entrance to the pericardium. Subsequently, the left atrium was elevated to expose the left anterior descending coronary artery (LAD), and was isolated using a 7-0 silk suture on a taper needle. The suture was tightened over a piece of polyethylene-10 tubing to provide for reversible ischemia via the occlusion of the coronary artery. Ischemia was allowed to continue for 45 minutes after occlusion. After 45 minutes, the suture was released to allow for reperfusion of the injured myocardium. […]
# I/R injured hearts = assay: PCR of HO-1 and pro-inflammatory genes in I/R injured hearts; assay type: in vivo, mouse; settings: i.v. at 72 hours of reperfusion
# From the text: as §4
# Total RNA was isolated from a whole heart using TRI Reagent (1 mL/whole heart). Subsequently, 1 μg of RNA was transcribed info cDNA using a random primer mixer (ProtoScript M-MuLV First Strand cDNA synthesis kit, New England BioLabs) and amplified during 35 cycles by PCR, utilizing specific primers (Table 1). The reactants were cycled at 95° C. for 1 min, 58° C. for 1 min, and 72° C. for 1.5 min to enable denaturation, annealing, and extension, respectively. PCR products were then separated on 1% (w/v) agarose gel at 60 V for 1 hour in TBE buffer (80 mM Tris base, 80 mM boric acid, and 2 mM EDTA, pH 8). The gels were stained with Health View Nucleic Acid Stain (Genomics, Taipei, Taiwan) for 30 minutes and then visualized under UV light.
# [3] = tested on: murine model of non-reperfused MI; assay: Echocardiographic assessment of cardiac function in murine model of MI; assay type: in vivo, mouse; settings: 28 days post MI
# Method: FIGS. 7A-7D show echocardiographic assessments of cardiac function and blood chemistry analysis of a murine model of MI injury after PLP−CoPP treatments. […] Treatments were then given every 5 days until day 28, at which point the cardiac function of the mice was assessed by echocardiography (n=8) (FIG. 7B); LVEF, left ventricular ejection fraction; FS, fraction shortening; LVEDV, left ventricular end-diastolic volume; LVESV, left ventricular end-systolic volume; IVSd, interventricular septal thickness at diastole; IVSs, interventricular septal thickness at systole. The blood of the mice was analyzed for biomarkers to assess liver function (FIG. 7C), renal function (FIG. 7D), and cardiac function (FIG. 7E); AST, aspartate aminotransferase; ALT, alanine aminotransferase; TBIL, total bilirubin; BUN, blood urea nitrogen; CRE, creatinine; CKMB, creatine kinase MB, *, P<0.05, ***, P<0.001. […]
# The cardiac function in murine models of both I/R and MI was assessed by using a 30-MHz probe (Vevo770; Visual Sonics, Toronto, ON, Canada), following the methods published in Chen et al. ((2015), Stem Cells Trans Med 4:269-275). […] The left ventricular end-diastolic diameter (LVEDD) and end-systolic diameter (LVESD) were measured perpendicular to the long axis of the ventricle at the location of the papillary muscle insertion site. […]
# murine model of MI = assay: Blood chemistry (serum) analysis in murine model of MI; assay type: in vivo, mouse; settings: end of 28-day treatment
# Method: FIGS. 7A-7D show echocardiographic assessments of cardiac function and blood chemistry analysis of a murine model of MI injury after PLP−CoPP treatments. […] Treatments were then given every 5 days until day 28, at which point the cardiac function of the mice was assessed by echocardiography (n=8) (FIG. 7B); LVEF, left ventricular ejection fraction; FS, fraction shortening; LVEDV, left ventricular end-diastolic volume; LVESV, left ventricular end-systolic volume; IVSd, interventricular septal thickness at diastole; IVSs, interventricular septal thickness at systole. The blood of the mice was analyzed for biomarkers to assess liver function (FIG. 7C), renal function (FIG. 7D), and cardiac function (FIG. 7E); AST, aspartate aminotransferase; ALT, alanine aminotransferase; TBIL, total bilirubin; BUN, blood urea nitrogen; CRE, creatinine; CKMB, creatine kinase MB, *, P<0.05, ***, P<0.001.
# All blood tests were performed by independent staff at the Taiwan Mouse Clinic, Academia Sinica, Taiwan. Male, BALB/c mice, approximately 56 weeks old, were used for all analyses (n=5 per group).
# Levels of aspartate transaminase (AST), alanine transaminase (ALT), and total bilirubin in the serum were the biomarkers used to evaluate the hepatotoxicity of CoPP (FIG. 7C). […] Similar results were also seen in the measured serum level of blood urine nitrogen (BUN) and creatinine (CRE), which are biomarkers for renal toxicity (FIG. 7D).
smiles,measurement,setting,value
"C=CC1=C(C)c2cc3[n-]c(cc4nc(cc5[n-]c(cc1n2)c(C)c5CCC(=O)[O-])C(CCC(=O)[O-])=C4C)c(C)c3C=C.[Co+2].[H+].[H+] [CoPP, cobalt protoporphyrin]",HO-1 expression,HO-1 expression in SVECs,induction of some expression
same,HO-1 expression,[1],induced strong HO-1 expression
same,infarct area of the heart,[2],significant reduction
same,"pro-inflammatory genes TNFα, MCP-1, IL6 and IL1β in the hearts",I/R injured hearts,downregulated
same,expression of the HO-1 gene (HMXO1) in the hearts,I/R injured hearts; vs saline and Lipo−CoPP,upregulated
same,"left ventricular ejection fraction (LVEF, %)",[3]; 5 mg/Kg i.v. from 3 days post-infarction every 5 days,No significant difference
same,LVEDV and LVESV,[3],significantly better than the other treatment groups
same,serum ALT,murine model of MI,significantly higher level
same,serum BUN and CRE,murine model of MI,significantly higher than the other treatment groups
same,serum CKMB,murine model of MI,significantly lower CKMB levels
